Test [1] relates to patients with dry AMD. The experiment in a line: Incidence of all neoplasms and basal cell carcinoma in patients with dry AMD (Example 6). Type of test: in vivo, human. Particulars: for Basal Cell Carcinoma, number of patients: placebo 5 of 82; for Basal Cell Carcinoma, incidence: placebo 6.1%; for All neoplasms, number of patients: placebo 14 of 82; for All neoplasms, incidence: placebo 17.1%. How it is done:
Patients with dry AMD were selected. Patients are divided into three groups. Group I (n=82) received a placebo. Group II (n=80) received fenretinide at a dose of 100 mg/day. Group III (n=84) received fenretinide at a dose of 300 mg/day. Incidence of all neoplasms and basal cell carcinoma was determined for each group.

Test [2] concerns human that suffers from geographic atrophy (GA), secondary to age related macular degeneration (AMD). The test can be described thus: Rate of skin neoplasms/cancer in patients with geographic atrophy secondary to AMD (Example 1). The following applies: orally 100 mg/day, placebo 9.8%. Type of test: in vivo. The protocol:
Two patient cohorts were selected. Each member of each patient cohort was a human that suffers from geographic atrophy (GA), secondary to age related macular degeneration (AMD). The mean concentration of serum retinol binding protein in the patients at baseline was approximately 60 μg/mL. The average concentration of serum retinol binding protein in normal individuals of the same type is about 25 μg/mL to about 40 μg/mL. In the first patient population, individuals were orally administered 100 mg/day fenretinide. In the second patient population, individuals were orally administered a placebo. The placebo group developed skin neoplasms (including basal cell carcinoma, squamous cell carcinoma, and/or melanoma) at a rate of 9.8%. In the first patient population, individuals developed cancer (including basal cell carcinoma, squamous cell carcinoma, and/or melanoma) at a rate of 2.5%. […] FIG. 4 illustrates the cytotoxicity of fenretinide on the melanoma cell line (B16 (RL)). FIG. 5 illustrates the effect of fenretinide and compounds of Formula II (designated SIR-1001 and SIR-1005) on two human melanoma cell lines (M207 and SK-MEL28).

Test [3] concerns the target T1, Sigma 1 receptor (Cavia porcellus, UniProt Q60492).
T1 construct: guinea pig brain membrane aliquots were thawed, and then suspended at a concentration of 1 mg protein/ml; from tissue; host or cells: guinea pig brain membranes
The test can be described thus: Sigma 1 receptor binding assay with [3H](+)-pentazocine. Particulars: competing ligand 10 μM; [3H](+)-pentazocine 1.0 nM or 0-10 nM; guinea pig brain membrane. How it is done:
Sigma 1 receptor binding assays were performed according to DeHaven-Hudkins et al. (1992). In brief, guinea pig brain membrane aliquots were thawed, and then suspended at a concentration of 1 mg protein/ml by adding fresh sigma 1 assay buffer (50 mM Tris-HCl; pH 7.4, 25° C.). Each glass assay tube was kept at a final volume of 1.0 ml, contained 0.25 mg protein, and was incubated for 150 min at 37° C. with [3H](+)-pentazocine. [3H](+)-Pentazocine was used at either a single concentration (1.0 nM, FIG. 6) or at a range of concentrations (0-10 nM, FIG. 7). Nonspecific binding was defined by haloperidol (1.0 μM). Competing ligand concentration (e.g., fenretinide) was 10 μM. Assays were terminated by addition of ice-cold […] (5 ml) and filtration, using a cell harvester (Brandel, Gaithersburg, Md.), through glass fiber filters (GF/B) that had been pretreated with polyethyleneimine (0.5%) for 60 min. Tubes and filter discs were washed (3×3.5 ml) with ice-cold assay buffer, and the filter discs dried under vacuum. Scintillation counting was carried out after incubation of the discs with cocktail for at least 18 h.

Test [4] concerns complement genes (Crry, CFH, MCP-1, CD59a, Daf2, and CD59b). The test can be described thus: Expression of complement genes in ocular tissue by RT-PCR. Type of test: in vivo, BALB/c mice. The following applies: RT-PCR normalized to 18S RNA. How it is done: The effects of fenretinide on expression of complement genes was studies in […].
Fenretinide supplemented chow ([…]), or control chow, was fed to pregnant mice. Birthed litters were maintained for 4 weeks. Mice were euthanized after 4 weeks and ocular tissue was prepared for RNA extraction. Expression of complement genes was determined by RT-PCR. Data was normalized to expression of 18S RNA.
Litters of mice were separated into 2 groups just prior to weaning (4 weeks of age). Mice in Group I were fed fenretinide supplemented chow (1 g fenretinide/kg chow) for 7 weeks. Mice in Group II were fed control chow for 7 weeks. Mice were euthanized after 7 weeks and ocular tissue was prepared for RNA extraction. Expression of complement genes was determined by RT-PCR. Data was normalized to expression of 18S RNA.

Structures are written as SMILES. “Also recorded” adds a separate entry of the source.

T1 sequence (Q60492 whole entry): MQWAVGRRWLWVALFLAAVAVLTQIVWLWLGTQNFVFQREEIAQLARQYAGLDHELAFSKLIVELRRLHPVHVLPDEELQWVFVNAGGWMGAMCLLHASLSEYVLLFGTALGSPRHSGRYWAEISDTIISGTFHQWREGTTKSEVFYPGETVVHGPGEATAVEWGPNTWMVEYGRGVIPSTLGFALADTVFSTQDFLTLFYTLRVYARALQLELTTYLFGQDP

With `CC1=C(/C=C/C(C)=C/C=C/C(C)=C/C(=O)Nc2ccc(O)cc2)C(C)(C)CCC1` [fenretinide, N-(4-hydroxyphenyl)retinamide], in test [1] (100 mg/day fenretinide, n = 80), the “Basal Cell Carcinoma, number of patients” value was 2; the “Basal Cell Carcinoma, incidence” value is 2.5%; the “All neoplasms, number of patients” value came to 4; the “All neoplasms, incidence” value is 5.0%. For the same compound, in test [1] (300 mg/day fenretinide, n = 84), the “Basal Cell Carcinoma, number of patients” value came out at 3; the “Basal Cell Carcinoma, incidence” value is listed as 3.6%; the “All neoplasms, number of patients” value is 10; the “All neoplasms, incidence” value is on record as 11.9%. For the same compound, the “rate at which individuals developed cancer (including basal cell carcinoma, squamous cell carcinoma, and/or melanoma)” value in test [2] turned out to be 2.5%. Further, the “binding of [3H]Pentazocine to Sigma-1 receptor in the presence of competing ligand” value in test [3] is listed as “reduced binding”. For the same compound, the “expression of complement genes Crry, CFH, MCP-1, CD59a, CD59b, Daf2 in the eye” value in test [4] (high dose: supplemented chow (Ig fenretinide/kg chow) fed to pregnant mice, litters maintained 4 weeks, FIG. 9) was “down-regulation; also recorded: down-regulates”. The “expression of complement genes Crry, CFH, MCP-1, CD59a, CD59b, Daf2 in the eye” value in test [4] (low dose: chow 1 g fenretinide/kg for 7 weeks from weaning, FIG. 8) is “up-regulation; also recorded: up-regulates”.

The values above are taken from patent publication US20130012591A1, “PROPHYLAXIS OF SKIN CANCER WITH RETINAMIDES” (Revision Therapeutics, Inc., priority 2009, published 2013).
